Holding throughout (assay): relative viability (nuclei count vs DMSO), 5 days (fraction); higher = more cells survive
Compound in experiment [1]: C[C@]1(O)C[C@@H](c2nc(-c3ccc4ccc(-c5ccccc5)nc4c3)c3c(N)nccn32)C1 [Linsitinib] + O=C(c1cc(Cc2n[nH]c(=O)c3ccccc23)ccc1F)N1CCN(C(=O)C2CC2)CC1 [Olaparib] (partner 8 µM)
Put shortly: (§1)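 Lung cancer cell lines in 1536-well plates got either a single drug or a fixed anchor-drug dose together with five library-drug doses (not always all listed) in √10 steps, by pin tool, on the day after seeding. Nuclei were counted after 5 days, and relative viability is the treated-to-vehicle ratio of nuclei counts. Values are medians of duplicate plates.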

Compound in experiment [2]: Cc1ccc(C(=O)N(CCCN)[C@@H](c2nc3cc(Cl)ccc3c(=O)n2Cc2ccccc2)C(C)C)cc1 [Ispinesib] + CS(=O)(=O)CCNCc1ccc(-c2ccc3ncnc(Nc4ccc(OCc5cccc(F)c5)c(Cl)c4)c3c2)o1 [Lapatinib] (partner 2 µM)
The essentials: as §1

Compound in experiment [3]: Cc1ccc(C(=O)N(CCCN)[C@@H](c2nc3cc(Cl)ccc3c(=O)n2Cc2ccccc2)C(C)C)cc1 [Ispinesib] + Cc1cc(Nc2cc(N3CCN(C)CC3)nc(Sc3ccc(NC(=O)C4CC4)cc3)n2)n[nH]1 [Tozasertib] (partner 0.1 µM)
The essentials: as §1

Compound in experiment [4]: Cc1ccc(C(=O)N(CCCN)[C@@H](c2nc3cc(Cl)ccc3c(=O)n2Cc2ccccc2)C(C)C)cc1 [Ispinesib] + O=C(c1cc(Cc2n[nH]c(=O)c3ccccc23)ccc1F)N1CCN(C(=O)C2CC2)CC1 [Olaparib] (partner 8 µM)
Put shortly:
as §1

As to UMC-11, the relative viability in experiment [1] (first compound 0.01 µM) came out at 0.361; in experiment [1] (first compound 0.03162 µM) it was 0.352; in experiment [1] (first compound 0.1 µM), 0.421; in experiment [1] (first compound 0.3162 µM), 0.273; in experiment [1] (first compound 1 µM), 0.329; in experiment [2] (first compound 0.001 µM), 1.08. The relative viability in experiment [2] (first compound 0.003162 µM) turned out to be 0.751; in experiment [2] (first compound 0.01 µM), 0.723; in experiment [2] (first compound 0.03162 µM), 0.294; in experiment [2] (first compound 0.1 µM), 0.216; in experiment [3] (first compound 0.001 µM), 0.201; in experiment [3] (first compound 0.003162 µM), 0.201. For the same cell line, the relative viability in experiment [3] (first compound 0.01 µM) was found to be 0.212; in experiment [3] (first compound 0.03162 µM) it was 0.189; in experiment [3] (first compound 0.1 µM), 0.205; in experiment [4] (first compound 0.001 µM), 0.693; in experiment [4] (first compound 0.003162 µM), 0.389; in experiment [4] (first compound 0.01 µM) it was 0.345. Also, the relative viability in experiment [4] (first compound 0.03162 µM) was determined as 0.325; in experiment [4] (first compound 0.1 µM), 0.272.

For the origin of these results see the supplement of paper PMC10307832.
